Results on 4 compounds are retold here after article PMC12019583 (Journal of Neurochemistry, 2025).

Several values for one entry are separate records, joined by “and”; a condition that tells them apart may be missing. Equal values may be shown once. Read-outs that look alike come from different tables or passages of the source.

Series [1] concerns the target T1, human SERT (Homo sapiens, UniProt P31645). Nature of the series: Whole-cell patch-clamp recordings of 5-HT-induced currents in HEK293 cells expressing human SERT. Type of series: cell-based. To be noted: for effect on serotonin-induced inwardly directed current: 10 μM, 5-HT 10 μM. As for the experimental part:
Whole‐cell patch‐clamp recordings were performed as recently described (Niello et al. [2023]). HEK293 cells stably expressing wild‐type GFP‐tagged human SERT were seeded at low density on poly‐D‐lysine‐coated dishes. Twenty hours after seeding, these cells were subjected to patch‐clamp recordings in the whole‐cell configuration. […] The internal solution in the patch pipette contained 133 mM potassium gluconate (CH2OH(CHOH)4COOK), 5.9 mM NaCl, 1 mM CaCl2, 0.7 mM MgCl2, 10 mM HEPES, 10 mM EGTA (pH adjusted to 7.2 with KOH). Drugs were applied using a 4‐tube ALA perfusion manifold (NPI Electronic GmbH, Germany) and a DAD‐12 superfusion system (Adams & List, Westbury, NY, USA) allowing for complete solution exchange around the cells within 100 ms. Currents were recorded via an Axopatch 200B amplifier (MDS Analytical Technologies, Sunnyvale, California) and analyzed using Clampfit 10.2 software. Passive holding currents were subtracted, and the traces were filtered using a 100 Hz digital Gaussian low‐pass filter.
(§1) The symbols represent three to four experiments performed in triplicate on different days, the error bars denote standard deviation. The red curves indicate the conditions promoting the optical switching (at a wavelength of 365 nm), the black curves indicate standard illumination. […] The rate of current recovery upon removal of (Z)‐9 from the bath solution (i.e., k off) was estimated by a fit of a monoexponential function to the current trace (see solid red line). […] Panel d: Viability assay employing trypan blue. […] PAR = paroxetine.

For series [2], the target named is T1, human SERT. Nature of the series: Uptake inhibition of [3H]5-HT in HEK293 cells stably expressing YhSERT. To be noted: for IC50: [3H]5-HT uptake, read-out: SERT IC50 ± SD. Type of series: cell-based. As to the method: (§2) The cells were cultured in a humidified atmosphere (37°C, 5% CO2) on standard plastic culture ware. To maintain the selection pressure for the stable cell lines, 150 units/mL Geneticin was added. Cells were typically not passaged over 25 times.
(§3) After 10 min, the preincubation solution was replaced by 0.05 mL/well KHB still containing the substance of interest and tritiated substrate additionally (50 nM [^3H]MPP^+ for the YhDAT; 100 nM [^3H]5HT for the YhSERT; 30 nM [^3H]GABA for the YhGAT1, hGAT3 and YrGAT1 and 20 nM [^3H]MPP^+ for the hNET) maintaining UV light treatment/no additional light treatment. Substrate uptake was stopped after 1 min (for [^3H]5HT) or 3 min (for [^3H]GABA and [^3H]MPP^+), respectively, by exchange of the substrate‐containing buffer with 0.2 mL/well ice‐cold KHB. The KHB was aspirated immediately, and the cells were lysed in 0.2 mL 1% SDS, transferred to 6‐mL scintillation vials, and assayed for [^3H] content by liquid scintillation counting.
(§4) Data from uptake experiments were subjected to non‐linear, least squares curve fitting to equations for a rectangular hyperbola using a Marquardt–Levenberg algorithm (GraphPad Prism v.9).

In a further series the target is hNET (Homo sapiens, UniProt P23975). Nature of the series: Uptake inhibition of [3H]MPP+ in HEK293 cells stably expressing hNET. Type of series: cell-based. To be noted: for loss in affinity at NET in comparison with paroxetine (factor): basal light; for reduction in IC50 by optical switching at NET: basal vs 365 nm; for IC50: [3H]MPP+ uptake, read-out: NET IC50 ± SD. As for the experimental part: as §2, §3, §4
Sequence of hNET (P23975 whole entry): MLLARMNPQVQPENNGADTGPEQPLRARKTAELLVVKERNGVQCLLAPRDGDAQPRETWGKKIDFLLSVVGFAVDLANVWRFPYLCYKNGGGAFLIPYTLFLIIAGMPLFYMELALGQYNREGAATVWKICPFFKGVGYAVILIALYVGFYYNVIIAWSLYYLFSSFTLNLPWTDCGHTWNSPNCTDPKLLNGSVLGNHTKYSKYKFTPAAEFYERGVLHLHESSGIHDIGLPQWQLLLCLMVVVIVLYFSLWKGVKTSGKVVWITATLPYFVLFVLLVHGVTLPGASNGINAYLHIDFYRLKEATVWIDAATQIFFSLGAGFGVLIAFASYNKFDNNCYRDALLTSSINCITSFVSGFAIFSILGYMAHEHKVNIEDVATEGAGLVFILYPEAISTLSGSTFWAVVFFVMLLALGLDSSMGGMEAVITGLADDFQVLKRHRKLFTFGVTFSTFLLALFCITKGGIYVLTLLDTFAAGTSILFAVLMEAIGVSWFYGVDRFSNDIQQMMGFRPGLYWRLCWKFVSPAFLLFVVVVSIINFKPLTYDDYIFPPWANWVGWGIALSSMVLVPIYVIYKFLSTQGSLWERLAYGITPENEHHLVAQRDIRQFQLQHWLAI

The target in the next series is human DAT (Homo sapiens, UniProt Q01959). As to the kind of experiment: Uptake inhibition of [3H]MPP+ in HEK293 cells stably expressing YhDAT. It counts as cell-based. To be noted: for loss in affinity at DAT in comparison with paroxetine (factor): basal light; for effect of optical switching on inhibitory potency at DAT: basal vs 365 nm; for IC50: [3H]MPP+ uptake, read-out: DAT IC50 ± SD. As to the method:
as §2, §3, §4

The target of a further series is T2, rat GAT1 (Rattus norvegicus, UniProt P23978).
T2 construct: expressed in transfected cells
Nature of the series: Uptake inhibition of [3H]GABA in HEK293 cells expressing YrGAT1. It counts as cell-based. The following applies: for IC50: [3H]GABA uptake, read-out: rGAT IC50 ± SD. As for the experimental part: as §2, §3, §4

In another series the target is T3, human GAT1 (Homo sapiens, UniProt P30531).
T3 construct: expressed in transfected cells; host or cells: HEK293
T3 sequence (P30531 whole entry): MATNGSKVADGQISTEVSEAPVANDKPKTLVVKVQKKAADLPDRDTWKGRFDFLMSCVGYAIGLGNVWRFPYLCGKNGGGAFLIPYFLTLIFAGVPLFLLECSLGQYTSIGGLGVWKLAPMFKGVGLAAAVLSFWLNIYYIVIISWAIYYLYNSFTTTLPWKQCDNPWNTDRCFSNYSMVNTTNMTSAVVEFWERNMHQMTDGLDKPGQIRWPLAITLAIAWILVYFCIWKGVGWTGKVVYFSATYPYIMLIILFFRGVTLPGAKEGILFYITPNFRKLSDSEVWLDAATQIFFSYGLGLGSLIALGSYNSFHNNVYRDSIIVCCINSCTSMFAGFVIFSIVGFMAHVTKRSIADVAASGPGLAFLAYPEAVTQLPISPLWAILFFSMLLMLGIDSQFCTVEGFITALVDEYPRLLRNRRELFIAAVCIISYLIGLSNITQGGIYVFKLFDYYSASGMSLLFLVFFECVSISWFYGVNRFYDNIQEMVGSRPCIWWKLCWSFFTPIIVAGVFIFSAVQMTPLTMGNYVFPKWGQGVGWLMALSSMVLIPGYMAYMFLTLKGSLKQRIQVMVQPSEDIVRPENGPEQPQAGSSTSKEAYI
Nature of the series: Uptake inhibition of [3H]GABA in HEK293 cells expressing YhGAT1. Type of series: cell-based. The following applies: for IC50: [3H]GABA uptake, read-out: hGAT1 IC50 ± SD. As for the experimental part: as §2, §3, §4

The next series concerns the target T4, human GAT3 (Homo sapiens, UniProt P48066).
T4 construct: expressed in transfected cells; host or cells: HEK293
T4 sequence (P48066 1-632): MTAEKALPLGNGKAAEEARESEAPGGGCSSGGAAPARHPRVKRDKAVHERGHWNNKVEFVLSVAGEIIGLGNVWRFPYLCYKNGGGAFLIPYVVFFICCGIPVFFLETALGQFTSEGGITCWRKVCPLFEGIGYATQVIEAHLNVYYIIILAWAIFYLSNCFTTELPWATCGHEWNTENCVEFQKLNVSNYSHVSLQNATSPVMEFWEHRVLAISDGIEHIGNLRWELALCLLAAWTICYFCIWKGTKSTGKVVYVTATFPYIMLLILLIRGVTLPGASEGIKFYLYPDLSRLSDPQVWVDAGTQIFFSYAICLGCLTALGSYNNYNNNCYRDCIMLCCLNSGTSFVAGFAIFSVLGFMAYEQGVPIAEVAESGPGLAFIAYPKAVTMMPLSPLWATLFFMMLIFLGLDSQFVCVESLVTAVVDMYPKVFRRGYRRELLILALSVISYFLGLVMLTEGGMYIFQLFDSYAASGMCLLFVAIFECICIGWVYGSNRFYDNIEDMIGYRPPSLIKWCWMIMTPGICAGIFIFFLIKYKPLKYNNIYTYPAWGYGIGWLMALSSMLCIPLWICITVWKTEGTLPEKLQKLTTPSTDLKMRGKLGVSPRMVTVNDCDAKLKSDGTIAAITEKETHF
Nature of the series: Uptake inhibition of [3H]GABA in HEK293 cells expressing hGAT3. The following applies: for IC50: [3H]GABA uptake, read-out: hGAT3 IC50 ± SD. Type of series: cell-based. As for the experimental part:
as §2, §3, §4

Another series deals with HEK293 cells. Nature of the series: Viability assay employing trypan blue. It counts as cell-based, human. The following applies: dose-dependent, up to high concentrations, DMSO positive control.
Description: as §1

Series [3] is described as follows: UHPLC-TOF-MS quantification of (E)/(Z) isomer content in photostationary state. The following applies: after irradiation 365 nm 30 s; 10 μM; several solvents (DMSO and aqueous). Type of series: physicochemical. As for the experimental part:
Additionally, quantification measurements with UHPLC‐TOF‐MS were conducted to determine the efficiency of the (E) to (Z) isomerization of azo‐paroxetine. […] Moreover, biological uptake inhibition assay conditions were mimicked during the switching experiments by choosing respective solvents and sample concentrations. Samples representing the dark state were taken before irradiation, samples representing the (Z)‐state were obtained after irradiation with […] (intensity 600 mW/cm^2 10 mm focusing lens, λ 365 nm) for 30 s. […] Bandara and Burdette [2012]). […] Switching concentration 10 μM, concentration in UHPLC‐TOF‐MS sample 1 μM, UHPLC‐TOF‐MS sample preparation with water/acetonitrile 90/10.

The nature of series [4]: Thermal (Z)/(E) isomerization half-life by UV/Vis. Type of series: physicochemical. The following applies: (Z)-isomer; 50 μM in dry DMSO, 23 °C; read-out: half-life time of thermal (Z)/(E) isomerization (converted). As for the experimental part: The rough experimental half-life time of the ( Z)-isomer of compound 9 was determined on a UV-1800 UV/Vis spectrophotometer from Shimadzu at 23 °C. A 50 μM sample of the compound in dry DMSO was irradiated with 365 nm for 5 seconds using the respective OmniCure® LED head at 100% power. Once the highest possible (Z)-isomer content was reached, the absorption at 331 nm, the ( E)-isomer’s absorption maximum l max, was regularly measured over the course of 12 hours. […]
of the thermal ( Z)/(E) isomerization.
A mathematical fitting function was used to linearize the obtained absorption data over time according to Equation S1.
AAllllllllllllllllllll = ln (AAmmllmm − AAtt )
Equation S1. Linear fit used for absorption AA .
The linearized absorption value gained by equation S1 was plotted over time and a linear fit function was applied. The obtained fit function gave the rate constant k as its slope value.
Next, the half- life time was calculated according to Equation S2. The resulting graph is shown […]
Equation S2. Calculation of half-life ττ1/2 time from rate constant kk .
This method of thermal half- life time determination wa s sufficiently precise for the […]
been shown (Singer et al, 2023) to yield similar results as compiling an Eyring plot for half-life time determination without the compound relax ing back to nearly 100% (E)-isomer.
Graph S1. […]

A further series concerns the target NET. Also noted: method as in Kristensen et al. [2011]; Owens et al. [2001]. To be noted: ref Kristensen et al. [2011]; Owens et al. [2001]; cited from earlier work.

Sequence of human DAT (Q01959 whole entry): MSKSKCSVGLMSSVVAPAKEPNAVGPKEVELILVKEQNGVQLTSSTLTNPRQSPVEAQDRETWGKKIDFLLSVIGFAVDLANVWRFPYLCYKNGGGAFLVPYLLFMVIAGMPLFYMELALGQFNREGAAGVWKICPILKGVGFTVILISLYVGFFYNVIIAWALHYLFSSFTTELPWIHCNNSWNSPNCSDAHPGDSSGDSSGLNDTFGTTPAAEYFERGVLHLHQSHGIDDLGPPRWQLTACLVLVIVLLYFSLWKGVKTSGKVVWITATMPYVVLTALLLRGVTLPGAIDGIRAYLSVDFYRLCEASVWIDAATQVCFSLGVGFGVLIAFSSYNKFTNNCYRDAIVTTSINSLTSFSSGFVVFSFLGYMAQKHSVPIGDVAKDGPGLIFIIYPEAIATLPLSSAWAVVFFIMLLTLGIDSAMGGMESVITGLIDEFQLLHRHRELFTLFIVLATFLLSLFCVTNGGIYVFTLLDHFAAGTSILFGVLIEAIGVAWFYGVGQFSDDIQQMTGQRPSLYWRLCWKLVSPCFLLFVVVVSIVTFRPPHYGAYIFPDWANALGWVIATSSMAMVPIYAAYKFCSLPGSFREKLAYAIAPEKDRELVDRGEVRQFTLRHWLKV
T1 sequence (P31645 whole entry, the tested form may be a part): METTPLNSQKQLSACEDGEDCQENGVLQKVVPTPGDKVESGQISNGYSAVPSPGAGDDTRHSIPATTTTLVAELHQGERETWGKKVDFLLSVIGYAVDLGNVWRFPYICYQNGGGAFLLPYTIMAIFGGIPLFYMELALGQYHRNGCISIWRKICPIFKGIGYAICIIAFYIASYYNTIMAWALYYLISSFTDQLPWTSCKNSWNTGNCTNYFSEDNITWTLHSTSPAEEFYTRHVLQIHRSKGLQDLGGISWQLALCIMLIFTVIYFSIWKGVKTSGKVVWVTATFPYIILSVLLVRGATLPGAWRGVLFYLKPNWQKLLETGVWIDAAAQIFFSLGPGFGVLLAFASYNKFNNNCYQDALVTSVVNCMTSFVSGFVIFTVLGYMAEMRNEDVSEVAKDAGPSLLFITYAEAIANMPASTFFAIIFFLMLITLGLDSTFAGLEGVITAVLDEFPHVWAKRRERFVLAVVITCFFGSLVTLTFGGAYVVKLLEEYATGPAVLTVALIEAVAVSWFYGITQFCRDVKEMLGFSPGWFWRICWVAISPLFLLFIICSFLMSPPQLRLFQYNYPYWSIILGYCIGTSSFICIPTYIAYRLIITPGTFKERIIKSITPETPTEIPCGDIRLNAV

Regarding `c1ccc(/N=N/c2ccc([C@@H]3CCNC[C@H]3COc3ccc4c(c3)OCO4)cc2)cc1` [(E)‐azo‐paroxetine (9)], at human SERT [1] ((E)-isomer, standard light), the “effect on serotonin-induced inwardly directed current” value is recorded as “marginal blockade”.
With `c1ccc(/N=N/c2ccc([C@@H]3CCNC[C@H]3COc3ccc4c(c3)OCO4)cc2)cc1` [Azo‐paroxetine (9)], the “loss in affinity at SERT in comparison with parent compound paroxetine (factor)” value at human SERT [2] (basal light) came out at 171 fold. The IC50 – broadly, the midpoint of a concentration-inhibition curve – at human SERT [2] (λ 365 nm (PSS, mainly (Z)-isomer)) worked out at 0.76 ± 0.18 µM; on human SERT [2] (λ basal (standard light, (E)-isomer)), 9.23 ± 3.06 µM; at hNET (λ 365 nm), 5.41 ± 3.32 µM; on hNET (λ basal), 15.4 ± 4.04 µM; at human DAT (λ 365 nm), 3.77 ± 0.79 µM; at human DAT (λ basal), 6.33 ± 2.06 µM. The IC50 was 126 ± 20.6 µM on rat GAT1 (λ 365 nm); 88.9 ± 11.8 µM at rat GAT1 (λ basal); 107 ± 15 µM at human GAT1 (λ 365 nm); 80.8 ± 21.6 µM at human GAT1 (λ basal); 90.5 ± 24.4 µM on human GAT3 (λ 365 nm); 55 ± 16.4 µM on human GAT3 (λ basal). The results for the “loss in affinity at NET in comparison with paroxetine (factor)” value at hNET (listed as azo‐paroxetine) and on hNET (listed as azo‐paroxetine (9)) were ~ 5 and 2 to 5, respectively. Besides, the “reduction in IC50 by optical switching at NET” value at hNET (listed as azo‐paroxetine) was 2 to 3 fold; at hNET (listed as azo‐paroxetine (9)) it was “~threefold”. The “loss in affinity at DAT in comparison with paroxetine (factor)” value on human DAT (listed as azo‐paroxetine) is ~ 3.7; at human DAT (listed as azo‐paroxetine (9)) it was 2 to 5. Also, the “effect of optical switching on inhibitory potency at DAT” value is listed as 2 to 3 fold on human DAT (listed as azo‐paroxetine) and 1.7 fold on human DAT (listed as azo‐paroxetine (9)). The “improvement of affinity at rat GAT1 relative to paroxetine” value on rat GAT1 is “around two to three‐fold”. In addition, the koff on human SERT [1] (HEK293, photoequilibrated (365 nm) state, n = 5, read-out: off-rate (k off)) was found to be 0.18 ± 0.031 s⁻¹. Also, the “effect on serotonin-induced inwardly directed current” value on human SERT [1] (photoequilibrated (365 nm)) is given as “completely abolished the inwardly directed current”. Besides, in the series with HEK293 cells (listed as azo‐paroxetine), the “cellular toxicity effects (trypan blue viability)” value is “did not find any significant toxic impact”. Besides, the “(Z)-isomer content in photostationary state” value in [3] was 83%–87% and 83%. In series [4], the half-life at 50 μM is 156 h.
In the case of `Fc1ccc([C@@H]2CCNC[C@H]2COc2ccc3c(c2)OCO3)cc1` [Paroxetine, paroxetine, reference compound], the IC50 on rat GAT1 (λ basal) worked out at 264 ± 140 µM; on human GAT1 (λ basal), 122 ± 81 µM; at human GAT3 (λ basal) it was 51 ± 3.7 µM. For the same compound, the Ki (commonly the equilibrium dissociation constant of an inhibitor or competing ligand from its target) on NET was 0.156 ± 0.029 µM.
Turning to azobenzene [reference compound], the “inhibitory effect on [3H]5-HT uptake at human SERT” value on human SERT [2] (concentrations up to 1 mM, basal and 365 nm) is listed as “could not really observe any significant inhibitory effects”. The “inhibition of GABA uptake at rat GAT1” value against rat GAT1 ((E)-configuration) is listed as “comparable to the value of the human GAT1”. On human GAT1 ((E)-configuration, up to 1 mM), the “inhibition of GABA uptake at human GAT1” value is listed as “up to 40%”. Moreover, the “inhibition of GABA uptake at human GAT3” value on human GAT3 (up to 1 mM) is recorded as “more than 60%”. In addition, the “cellular toxicity effects (trypan blue viability)” value in the series on HEK293 cells was “neither azo‐paroxetine (9) nor azobenzene”.
